Assay results: patent US8173808B2, “Substituted naphthalenyl-pyrimidine compounds” (ArQule, Inc., priority 2009, dated 2012)

How the values were obtained:
[1] = system: DLD-1; assay: MTS assay, DLD-1; type: cell-based; conditions: Homo sapiens, 72 hours, 1 Percent FBS
[2] = system: MDA-MB-231; assay: MTS assay, MDA-MB-231; type: cell-based; conditions: Homo sapiens, 72 hours, 1 Percent FBS

Structure (SMILES) | inhibition at 10 µM [1] [%] | inhibition at 10 µM [2] [%]
COc1ccc(CCNc2nccc(-c3cc(NC(=O)OC(C)(C)C)c4cc(OC)ccc4c3)n2)cc1 [Compound 88, tert-butyl [7-methoxy-3-(2-{[2-(4-methoxyphenyl)ethyl]amino}pyrimidin-4-yl)-1-naphthyl]carbamate] | 90 | 64
CCN1CCCC(Nc2nccc(-c3cc(NC(=O)OC(C)(C)C)c4cc(OC)ccc4c3)n2)C1 (stereo not drawn) [Compound 91, tert-butyl (3-{2-[(1-ethylpiperidin-3-yl)amino]pyrimidin-4-yl}-7-methoxy-1-naphthyl)carbamate] | 97 | 85
COc1ccc2cc(-c3ccnc(NCCc4ccccc4OC)n3)cc(NC(=O)OC(C)(C)C)c2c1 [Compound 92, tert-butyl [7-methoxy-3-(2-{[2-(2-methoxyphenyl)ethyl]amino}pyrimidin-4-yl)-1-naphthyl]carbamate] | 98 | 99
COc1ccc2cc(-c3ccnc(NCc4cncn4C)n3)cc(NC(=O)OC(C)(C)C)c2c1 [Compound 93, tert-butyl [7-methoxy-3-(2-{[(1-methyl-1H-imidazol-5-yl)methyl]amino}pyrimidin-4-yl)-1-naphthyl]carbamate] | 96 | 72
COc1ccc2cc(-c3ccnc(NCCc4cccc(OC)c4OC)n3)cc(NC(=O)OC(C)(C)C)c2c1 [Compound 94, tert-butyl [3-(2-{[2-(2,3-dimethoxyphenyl)ethyl]amino}pyrimidin-4-yl)-7-methoxy-1-naphthyl]carbamate] | 37 | 35
COc1ccc2cc(-c3ccnc(NCCc4cccnc4)n3)cc(NC(=O)OC(C)(C)C)c2c1 [Compound 98, tert-butyl (7-methoxy-3-{2-[(2-pyridin-3-ylethyl)amino]pyrimidin-4-yl}-1-naphthyl)carbamate] | 98 | 86
COc1cccc(CNc2nccc(-c3cc(NC(=O)OC(C)(C)C)c4cc(OC)ccc4c3)n2)c1 [Compound 99, tert-butyl (7-methoxy-3-{2-[(3-methoxybenzyl)amino]pyrimidin-4-yl}-1-naphthyl)carbamate] | 97 | 98
COCCNc1nccc(-c2cc(NC(=O)OC(C)(C)C)c3cc(OC)ccc3c2)n1 [Compound 100, tert-butyl (7-methoxy-3-{2-[(2-methoxyethyl)amino]pyrimidin-4-yl}-1-naphthyl)carbamate] | 70 | 31
COc1ccc2cc(-c3ccnc(NC4CCN(Cc5ccccc5)CC4)n3)cc(NC(=O)OC(C)(C)C)c2c1 [Compound 101, tert-butyl (3-{2-[(1-benzylpiperidin-4-yl)amino]pyrimidin-4-yl}-7-methoxy-1-naphthyl)carbamate] | 96 | 98
COc1ccc2cc(-c3ccnc(NC4CC(C)(C)N(C)C(C)(C)C4)n3)cc(NC(=O)OC(C)(C)C)c2c1 [Compound 103, tert-butyl (7-methoxy-3-{2-[(1,2,2,6,6-pentamethylpiperidin-4-yl)amino]pyrimidin-4-yl}-1-naphthyl)carbamate] | 74 | 89
COc1ccc(CNc2nccc(-c3cc(NC(=O)OC(C)(C)C)c4cc(OC)ccc4c3)n2)cc1 [Compound 104, tert-butyl (7-methoxy-3-{2-[(4-methoxybenzyl)amino]pyrimidin-4-yl}-1-naphthyl)carbamate] | 48 | 30
COc1ccc2cc(-c3ccnc(NCC(C)(C)CN(C)C)n3)cc(NC(=O)OC(C)(C)C)c2c1 [Compound 105, tert-butyl [3-(2-{[3-(dimethylamino)-2,2-dimethylpropyl]amino}pyrimidin-4-yl)-7-methoxy-1-naphthyl]carbamate] | 84 | 89
